The results in this text go back to patent US11028058B2, “Heterocyclic compounds as adenosine antagonists” (NUVATION BIO INC., priority 2017, dated 2021).

Assay [1] deals with T1, HEK-293 cells expressing human recombinant adenosine A2A receptor (Homo sapiens (Human), UniProt P29274). The assay is described as follows: cAMP assay, Assay 1 (HTRF kit). Format: cell-based. Particulars: HEK293, 100 nM, read-out: A2a cAMP (% inh @ 100 nM). The method, then:
(§1) The functional activity of compounds was tested using one of the two assays to detect the present of cAMP. Activation of G-protein coupled receptors (such as A2A) results in activation of adenylcyclase which converts ATP into cAMP which is used as a downstream signaling molecule. Therefore, molecules which act as GPCR (or specifically A2A receptor) antagonists cause a decrease in intracellular cAMP concentration.
(§2) Both assays used HEK-293 cells expressing human recombinant adenosine A2A receptor were grown prior to the test in media without antibiotic.
12 μL of cells were mixed with 6 μL of the test compound at increasing concentrations and then incubated for 10 min. Thereafter 6 μL of the reference agonist was added at a final concentration corresponding to the historical EC80. The plates were then incubated for 30 min at room temperature. After addition of the lysis buffer and 1 hour incubation, cAMP concentrations were estimated, according to the manufacturer specification, with the HTRF® kit.

In assay [2] the target is adenosine A2A receptor (Homo sapiens (Human), UniProt P29274). The experiment in a line: A2A adenosine receptor radioligand binding competition assay (filter plates). The method, then: Binding of selected compounds to the adenosine A2A, A1, A2B, and A3 receptors was tested using a binding competition assay.
The general protocol for the radioligand binding competition assay was as follows. Competition binding was performed in duplicate in the wells of a 96 well plate (Master Block, Greiner, 786201) containing binding buffer (optimized for each receptor), membrane extracts (amount of protein/well optimized for each receptor), radiotracer (final concentration optimized for each receptor), and test compound. Nonspecific binding was determined by co-incubation with 200-fold excess of cold competitor. The samples were incubated in a final volume of 0.1 mL at 25° C. for 60 minutes and then filtered over filter plates. Filters were washed six times with 0.5 mL of ice-cold washing buffer (optimized for each receptor) and 50 μL of Microscint 20 (Packard) were added on each filter. The filter plates were sealed, incubated 15 min on an orbital shaker and scintillation counted with a TopCount for 30 sec/filter.
(§3) For the A2A adenosine receptor radioligand binding assay, the following modifications were made to the general protocol. GF/C filters (Perkin Elmer, 6005174), presoaked in 0.01% Brij for 2 h at room temperature were used. Filters were washed six times with 0.5 mL of ice-cold washing buffer (50 mM Tris pH 7.4) and 50 μL of Microscint 20 (Packard) was added in each well. The plates were then incubated for 15 min on an orbital shaker and then counted with a TopCount™ for 1 min/well. Another radioligand binding assay was used to evaluate the binding affinity for the adenosine A2A receptor assay was performed in duplicate in the wells of a 384 plate. Assay buffer contained DPBS 500 mM, MgCl2 0.1 mM, and 1% DMSO. Membrane-bead suspension was prepared by mixing 25.98 μL of human adenosine A2A membrane preparation (Perkin Elmer, RBHA2AM400UA) at 33.4 μg/mL, 28 μL of ADA at 20 μg/mL, and 932 μL of SPA beads at 3.33 mg/mL) and incubated the mixture for 20 min at room temperature. Mixed 20 μL of radiotracer (^3H-SCH 58261) at 15 nM to each well containing test articles at various concentrations and centrifuge the plate at 1000 rpm for 1 minute. Added 30 μL of the membraine-bead suspension to each well. Sealed the plates and incubated for 1 hr at room temperature with vigorous mixing on a plate mixer. Plates were read on Microbeta^2 (Perkin Elmer, 2450-0010).

Assay [3] addresses T1, HEK-293 cells expressing human recombinant adenosine A2A receptor. The assay is described as follows: cAMP assay, Assay 2 (Eu-cAMP tracer / ULight-anti-cAMP). The format is cell-based. Particulars: Assay 2; for inhibition at 0.1 µM: HEK293, 100 nM, read-out: A2a cAMP % inh @ 100 nM. The method, then: as §1, §2
Assay 2 (Table B2-2): 100 nL of test articles at 100× of final concentration were transferred to assay plate by Echo. Cells were washed twice with 5 mL of PBS […]. After aspirating the PBS and adding 1.5 mL versine, cells were incubated at 37° C. for 2-5 min. After centrifugation, 4 mL of medium was added and adjusted cell density to 5,000 cells/well with Stimulation Buffer. 10 μL of cells were aliquoted to the assay plate, centrifuged at 1000 rpm for 1 minute, and incubated for 60 minutes at room temperature. 5 μL 4×Eu-cAMP tracer solution and 5 μL 4×Ulight™-anti-cAMP solution were added to assay plate, followed by centrifugation and 60-minute incubation at room temperature. Plates were read on EnVision.
(In general: Changes in cAMP serve as a functional read-out for many G protein-coupled receptors.)

The target of assay [4] is human adenosine A2A membrane preparation (Homo sapiens (Human), UniProt P29274). The experiment in a line: Adenosine A2A receptor radioligand binding assay (SPA beads, 3H-SCH 58261, 384 plate). Particulars: for inhibition at 0.001 µM: read-out: A2a binding % inh @ 1 nM; for inhibition at 0.01 µM: read-out: A2a binding % inh @ 10 nM; for inhibition at 0.1 µM: read-out: A2a binding % inh @ 100 nM; for inhibition at 1 µM: read-out: A2a binding % inh @ 1000 nM; for IC50: Table B1-2. The procedure:
as §3

T1 sequence (P29274 whole entry): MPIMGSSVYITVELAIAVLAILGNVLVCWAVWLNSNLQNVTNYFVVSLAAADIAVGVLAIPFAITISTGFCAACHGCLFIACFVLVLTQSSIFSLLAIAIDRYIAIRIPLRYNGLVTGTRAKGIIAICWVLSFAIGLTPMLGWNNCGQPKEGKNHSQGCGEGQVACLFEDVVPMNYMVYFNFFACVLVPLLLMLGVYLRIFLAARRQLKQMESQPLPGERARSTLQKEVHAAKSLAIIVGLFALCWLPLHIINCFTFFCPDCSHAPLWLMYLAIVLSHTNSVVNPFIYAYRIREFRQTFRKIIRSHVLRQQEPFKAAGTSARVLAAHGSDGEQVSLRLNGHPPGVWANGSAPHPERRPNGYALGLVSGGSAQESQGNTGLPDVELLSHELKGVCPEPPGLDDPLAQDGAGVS
adenosine A2A receptor, sequence (P29274 whole entry): as above
human adenosine A2A membrane preparation, sequence (P29274 whole entry): as above

On to `Cc1nc2cc(-c3ncc(N)nc3-c3ccccc3)ccc2[nH]1` [1.9, 5-(2-methyl-1H-benzo[d]imidazol-5-yl)-6-phenylpyrazin-2-amine], for which the inhibition at 0.1 µM in assay [1] was 49%.
In the case of `Nc1cnc(-c2cc(Cl)c(O)c(Cl)c2)c(-c2ccccc2)n1` [Compound 1.2, 4-(5-amino-3-phenylpyrazin-2-yl)-2,6-dichlorophenol], the inhibition at 0.1 µM in assay [1] was 100%. For the same molecule, the “A2A radioligand binding competition assay % residual binding @ 100 nM” value in assay [2] is “ND/ND/ND/62%”.
Take `CC(=O)Nc1cnc(-c2ccc(O)c(Cl)c2)c(-c2ccccc2)n1` [Compound 1.3, N-(5-(3-chloro-4-hydroxyphenyl)-6-phenylpyrazin-2-yl)acetamide]: the inhibition at 0.1 µM in assay [1] worked out at 100%. The “A2A radioligand binding competition assay % residual binding @ 100 nM” value in assay [2] is listed as “ND/ND/ND/57%”.
In the case of `N#Cc1nc(-c2ccc3ncccc3c2)c(-c2ccccc2)nc1N` [Compound 1.19, 3-amino-5-phenyl-6-(quinolin-6-yl)pyrazine-2-carbonitrile], the inhibition at 0.1 µM in assay [1] was 100%. In assay [2], the “A2A radioligand binding competition assay % residual binding @ 3000 nM” value is reported as 4/ND/ND/ND %.
On to `Nc1cnc(-c2ccc3[nH]ccc3c2)c(-c2ccccc2)n1` [Compound No. 1.4, 5-(1H-indol-5-yl)-6-phenylpyrazin-2-amine], for which, in assay [1], the inhibition at 0.1 µM amounted to 1.4%.
The same measure, in the same setting: to `CC(C)(C)c1cc(-c2ncc(N)nc2-c2ccccc2)ccc1O` [Compound No. 1.6, 4-(5-amino-3-phenylpyrazin-2-yl)-2-tert-butylphenol] belongs 47%.
On to `Nc1cnc(-c2ccc(O)cc2)c(-c2ccccc2)n1` [Compound No. 1.7, 4-(5-amino-3-phenylpyrazin-2-yl)phenol], for which the inhibition at 0.1 µM in assay [1] was 100%. Moreover, the “A2A radioligand binding competition assay % residual binding @ 300 nM” value in assay [2] is recorded as “ND/ND/100/ND %”.
Turning to `Nc1cnc(-c2ccc(O)c(Cl)c2)c(-c2ccco2)n1` [Compound No. 1.8, 4-(5-amino-3-(furan-2-yl)pyrazin-2-yl)-2-chlorophenol], in assay [1], the inhibition at 0.1 µM stood at 100%. The “A2A radioligand binding competition assay % residual binding @ 300 nM” value in assay [2] is “ND/ND/39/ND %”.
As for `Nc1cnc(-c2ccc3[nH]cnc3c2)c(-c2ccccc2)n1` [Compound No. 1.10, 5-(1H-benzo[d]imidazol-6-yl)-6-phenylpyrazin-2-amine], the inhibition at 0.1 µM in assay [1] was determined as 100%. In addition, in assay [2], the “A2A radioligand binding competition assay % residual binding @ 100 nM” value is 77%, the “A2A radioligand binding competition assay % residual binding @ 300 nM” value is listed as 70%, the “A2A radioligand binding competition assay % residual binding @ 1000 nM” value is listed as 64% and the “A2A radioligand binding competition assay % residual binding @ 3000 nM” value was determined as 39%.
Take `N#Cc1cc(-c2ncc(N)nc2-c2ccccc2)ccc1O` [Compound No. 1.11, 5-(5-amino-3-phenylpyrazin-2-yl)-2-hydroxybenzonitrile]: the inhibition at 0.1 µM in assay [1] was 100%. Besides, the “A2A radioligand binding competition assay % residual binding @ 300 nM” value in assay [2] is “ND/ND/126/ND %”.
In the case of `Nc1cnc(-c2ccc3ncccc3c2)c(-c2ccccc2)n1` [Compound No. 1.12, 6-phenyl-5-(quinolin-6-yl)pyrazin-2-amine], the inhibition at 0.1 µM in assay [1] worked out at 94%. In assay [2], the “A2A radioligand binding competition assay % residual binding @ 300 nM” value is given as 66%, the “A2A radioligand binding competition assay % residual binding @ 1000 nM” value worked out at 12% and the “A2A radioligand binding competition assay % residual binding @ 3000 nM” value is given as 12%.
Consider `Nc1cnc(-c2cc(Cl)c3[nH]cnc3c2)c(-c2ccccc2)n1` [Compound No. 1.13, 5-(7-chloro-1H-benzo[d]imidazol-5-yl)-6-phenylpyrazin-2-amine], for which the inhibition at 0.1 µM in assay [1] came out at 51%. In addition, in assay [2], the “A2A radioligand binding competition assay % residual binding @ 100 nM” value amounted to 83%, the “A2A radioligand binding competition assay % residual binding @ 300 nM” value is reported as 69%, the “A2A radioligand binding competition assay % residual binding @ 1000 nM” value is 17% and the “A2A radioligand binding competition assay % residual binding @ 3000 nM” value is given as 18%.
The matching figures for `Nc1nc(-c2ccccc2)c(-c2ccc3ncccc3c2)nc1Br` [Compound No. 1.14, 3-bromo-6-phenyl-5-(quinolin-6-yl)pyrazin-2-amine]: 100%, 76%, 48%, 29% and 12%.
Regarding `Nc1cnc(-c2ccc3ncccc3c2)c(-c2ccc(F)cc2)n1` [Compound No. 1.15, 6-(4-fluorophenyl)-5-(quinolin-6-yl)pyrazin-2-amine], in assay [1], the inhibition at 0.1 µM stood at 0%. In addition, the “A2A radioligand binding competition assay % residual binding @ 3000 nM” value in assay [2] was 104/ND/ND/ND %.
In the case of `Nc1cnc(-c2ccc3nccnc3c2)c(-c2ccccc2)n1` [Compound No. 1.16, 6-phenyl-5-quinoxalin-6-yl-pyrazin-2-amine], the inhibition at 0.1 µM in assay [1] came out at 0%. Moreover, the “A2A radioligand binding competition assay % residual binding @ 3000 nM” value in assay [2] is on record as 80/ND/ND/ND %.
The matching figures for `Nc1cnc(-c2cc(Cl)c3ncccc3c2)c(-c2ccccc2)n1` [Compound No. 1.17, 5-(8-chloroquinolin-6-yl)-6-phenylpyrazin-2-amine]: 99% and 8/ND/ND/ND %.
Take `Cc1ccn(-c2nc(N)cnc2-c2ccc3ncsc3c2)n1` [Compound No. 1.286, 5-(benzo[d]thiazol-6-yl)-6-(3-methyl-1H-pyrazol-1-yl)pyrazin-2-amine]: the inhibition at 0.1 µM in assay [3] amounted to 20%. Also, in assay [4], the inhibition at 0.001 µM was determined as 40%, the inhibition at 0.01 µM is 87%, the inhibition at 0.1 µM worked out at 96% and the inhibition at 1 µM amounted to 86%.
As for `Cc1ccn(-c2nc(N)cnc2-c2ccc3[nH]ncc3c2)n1` [Compound No. 1.287, 5-(1H-indazol-5-yl)-6-(3-methyl-1H-pyrazol-1-yl)pyrazin-2-amine], the inhibition at 0.1 µM in assay [3] was found to be 16%. Further, in assay [4], the inhibition at 0.001 µM stood at 42%, the inhibition at 0.01 µM was determined as 77%, the inhibition at 0.1 µM was determined as 90% and the inhibition at 1 µM is 80%.
The IC50 is the point on the concentration scale where inhibition reaches its midpoint. In the case of `Cc1ncc(-c2nc(N)cnc2-c2ccc3ncccc3c2)s1` [Compound No. 1.288, 6-(2-methylthiazol-5-yl)-5-(quinolin-6-yl)pyrazin-2-amine], the IC50 in assay [3] amounted to 1050 nM. Further, in assay [4], the IC50 was determined as 55.5 nM, the inhibition at 0.001 µM worked out at 42%, the inhibition at 0.01 µM was 83% and the inhibition at 0.1 µM worked out at 86%. In assay [4], the inhibition at 1 µM is 84%.
For `Cc1ccn(-c2nc(N)c(C#N)nc2-c2ccc3ncccc3c2)n1` [Compound No. 1.290, 3-amino-5-(3-methyl-1H-pyrazol-1-yl)-6-(quinolin-6-yl)pyrazine-2-carbonitrile], the IC50 in assay [3] was 35.7 nM. In addition, in assay [4], the concentration for half-maximal inhibition (IC50) came out at 3.3 nM, the inhibition at 0.001 µM is 57%, the inhibition at 0.01 µM is 85% and the inhibition at 0.1 µM was determined as 89%. In addition, the inhibition at 1 µM in assay [4] was 89%.
